Experimental data published in PubChem BioAssay AID256 (DTP/NCI, 2004).
“And” between values parts separate entries of the source, which are not always exact repeats. Identical values can stand only once. Toxic doses and inconclusive results are not listed. Rule for the calls: active = survival T/C of 150% or more; inactive = T/C below 125% in these data.

System: CD2F1 mice, L1210 leukemia ip, survival T/C
Assay: NCI In Vivo Anticancer Drug Screen. Data for tumor model L1210 Leukemia (intraperitoneal) in CD2F1 (CDF1) mice
Settings: higher = longer survival
In short: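 Implant tumor; dose compound or vehicle; measure endpoint in both groups; report treated divided by control.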

[1] = endpoint: mean survival time, dose: 100.0 mg/kg/injection, schedule: Q01DX009 (ip), vehicle: saline with Tween-80
[2] = endpoint: mean survival time, dose: 100.0 mg/kg/injection, schedule: Q04DX002 (ip), vehicle: saline with Tween-80
[3] = endpoint: mean survival time, dose: 100.0 mg/kg/injection, schedule: Q04DX003 (ip), vehicle: saline with Tween-80
[4] = endpoint: mean survival time, dose: 200.0 mg/kg/injection, schedule: Q01DX009 (ip), vehicle: saline with Tween-80
[5] = endpoint: mean survival time, dose: 200.0 mg/kg/injection, schedule: Q04DX002 (ip), vehicle: saline with Tween-80
[6] = endpoint: mean survival time, dose: 200.0 mg/kg/injection, schedule: Q04DX003 (ip), vehicle: saline with Tween-80
[7] = endpoint: mean survival time, dose: 400.0 mg/kg/injection, schedule: Q01DX009 (ip), vehicle: saline with Tween-80
[8] = endpoint: mean survival time, dose: 400.0 mg/kg/injection, schedule: Q04DX002 (ip), vehicle: saline with Tween-80
[9] = endpoint: mean survival time, dose: 400.0 mg/kg/injection, schedule: Q04DX003 (ip), vehicle: saline with Tween-80
[10] = endpoint: mean survival time, dose: 50.0 mg/kg/injection, schedule: Q01DX009 (ip), vehicle: saline with Tween-80
[11] = endpoint: mean survival time, dose: 25.0 mg/kg/injection, schedule: Q04DX003 (ip), vehicle: saline with Tween-80
[12] = endpoint: mean survival time, dose: 100.0 mg/kg/injection, schedule: Q04DX003 (ip), vehicle: saline
[13] = endpoint: mean survival time, dose: 100.0 mg/kg/injection, schedule: Q04DX003 (ip), vehicle: Klucel (hydroxypropylcellulose) (HPC)
[14] = endpoint: mean survival time, dose: 200.0 mg/kg/injection, schedule: Q04DX003 (ip), vehicle: Klucel (hydroxypropylcellulose) (HPC)

Measured: T/C

S=C(S)NC1CCCCC1
inactive: endpoint: mean survival time, dose: 6.0 mg/kg/injection, schedule: Q04DX003 (ip), vehicle: saline with Tween-80 98 % of control | endpoint: mean survival time, dose: 12.0 mg/kg/injection, schedule: Q04DX003 (ip), vehicle: saline with Tween-80 102 % of control | endpoint: mean survival time, dose: 24.0 mg/kg/injection, schedule: Q04DX003 (ip), vehicle: saline with Tween-80 94 % of control

O=C(NC(=S)Nc1ccc(CCO)cc1)c1cccc(Br)c1
inactive: endpoint: mean survival time, dose: 100.0 mg/kg/injection, schedule: Q01DX001 (ip), vehicle: saline with Tween-80 104 % of control | [1] 97 % of control and 98 % of control | [2] 88 % of control and 101 % of control | [3] 100 % of control | endpoint: mean survival time, dose: 200.0 mg/kg/injection, schedule: Q01DX001 (ip), vehicle: saline with Tween-80 98 % of control | [4] 101 % of control and 108 % of control | [5] 91 % of control and 92 % of control | [6] 100 % of control | endpoint: mean survival time, dose: 400.0 mg/kg/injection, schedule: Q01DX001 (ip), vehicle: saline with Tween-80 104 % of control | [7] 86 % of control and 106 % of control | [8] 95 % of control | [9] 93 % of control

O=C(O)C1Cc2nc[nH]c2CN1CO (stereo not drawn)
inactive: endpoint: mean survival time, dose: 12.5 mg/kg/injection, schedule: Q01DX009 (ip), vehicle: saline with Tween-80 100 % of control | endpoint: mean survival time, dose: 25.0 mg/kg/injection, schedule: Q01DX009 (ip), vehicle: saline with Tween-80 100 % of control and 102 % of control | [10] 100 % of control | [1] 104 % of control and 109 % of control | [4] 108 % of control | [7] 108 % of control and 109 % of control

COc1ccc2ccc[n+](C)c2c1
inactive: endpoint: mean survival time, dose: 6.25 mg/kg/injection, schedule: Q01DX009 (ip), vehicle: saline 94 % of control | endpoint: mean survival time, dose: 6.25 mg/kg/injection, schedule: Q04DX003 (ip), vehicle: saline with Tween-80 98 % of control | endpoint: mean survival time, dose: 12.5 mg/kg/injection, schedule: Q01DX009 (ip), vehicle: saline 104 % of control | endpoint: mean survival time, dose: 12.5 mg/kg/injection, schedule: Q04DX003 (ip), vehicle: saline with Tween-80 101 % of control | endpoint: mean survival time, dose: 25.0 mg/kg/injection, schedule: Q01DX009 (ip), vehicle: saline 107 % of control | [11] 101 % of control

Cc1ccc(S(=O)(=O)/N=S(/C)CC/S(C)=N/S(=O)(=O)c2ccc(C)cc2)cc1 (stereo not drawn)
inactive: endpoint: mean survival time, dose: 100.0 mg/kg/injection, schedule: Q01DX001 (ip), vehicle: Klucel (hydroxypropylcellulose) (HPC) 97 % of control | endpoint: mean survival time, dose: 200.0 mg/kg/injection, schedule: Q01DX001 (ip), vehicle: Klucel (hydroxypropylcellulose) (HPC) 102 % of control | endpoint: mean survival time, dose: 400.0 mg/kg/injection, schedule: Q01DX001 (ip), vehicle: Klucel (hydroxypropylcellulose) (HPC) 100 % of control

COc1cc2c(oc(=O)c3cc(C)cc(OC)c32)c2c(C3OC(C)C(O)C(C)(O)C3O)ccc(O)c12 (stereo not drawn)
inactive: endpoint: median survival time, dose: 3.12 mg/kg/injection, schedule: Q01DX005 (ip), vehicle: DMSO 109 % of control and 110 % of control | endpoint: median survival time, dose: 6.25 mg/kg/injection, schedule: Q01DX005 (ip), vehicle: DMSO 108 % of control and 110 % of control | endpoint: median survival time, dose: 12.5 mg/kg/injection, schedule: Q01DX005 (ip), vehicle: DMSO 121 % of control and 103 % of control and 109 % of control | endpoint: median survival time, dose: 25.0 mg/kg/injection, schedule: Q01DX005 (ip), vehicle: DMSO 113 % of control and 118 % of control and 109 % of control | endpoint: median survival time, dose: 50.0 mg/kg/injection, schedule: Q01DX005 (ip), vehicle: DMSO 116 % of control and 112 % of control | endpoint: median survival time, dose: 100.0 mg/kg/injection, schedule: Q01DX005 (ip), vehicle: DMSO 121 % of control

O=[N+]([O-])c1ccc2nc3ccscc-3c2c1
inactive: endpoint: mean survival time, dose: 100.0 mg/kg/injection, schedule: Q01DX001 (ip), vehicle: acetone 100 % of control | endpoint: mean survival time, dose: 200.0 mg/kg/injection, schedule: Q01DX001 (ip), vehicle: acetone 100 % of control | endpoint: mean survival time, dose: 400.0 mg/kg/injection, schedule: Q01DX001 (ip), vehicle: acetone 92 % of control

CCC(O)C[As](=O)(O)c1cccc(Cl)c1 (stereo not drawn)
inactive: endpoint: mean survival time, dose: 0.39 mg/kg/injection, schedule: Q01DX009 (ip), vehicle: saline 95 % of control | endpoint: mean survival time, dose: 0.78 mg/kg/injection, schedule: Q01DX009 (ip), vehicle: saline 97 % of control | endpoint: mean survival time, dose: 1.56 mg/kg/injection, schedule: Q01DX009 (ip), vehicle: saline 103 % of control | endpoint: mean survival time, dose: 3.13 mg/kg/injection, schedule: Q01DX009 (ip), vehicle: saline 114 % of control

CCCCCCCCCCCCCCCCCC(=O)CC
inactive: endpoint: mean survival time, dose: 100.0 mg/kg/injection, schedule: Q04DX002 (ip), vehicle: saline + alcohol 93 % of control | endpoint: mean survival time, dose: 200.0 mg/kg/injection, schedule: Q04DX002 (ip), vehicle: saline + alcohol 93 % of control | endpoint: mean survival time, dose: 400.0 mg/kg/injection, schedule: Q04DX002 (ip), vehicle: saline + alcohol 93 % of control

O=P(c1ccccc1)(c1ccccc1)c1ccccc1
inactive: [1] 97 % of control | [3] 97 % of control | [4] 95 % of control | [6] 100 % of control | [7] 100 % of control

CC(C)(C)c1cc(/C=N/NC(=O)CNC(=O)NCc2ccco2)cc(C(C)(C)C)c1O
inactive: [10] 93 % of control | [1] 101 % of control | [4] 104 % of control

O=[N+]([O-])c1ccc2c([N+](=O)[O-])ccc3c2c1CC3
inactive: [3] 100 % of control | [6] 109 % of control | [9] 97 % of control

CCOC(=O)CN/N=C(\N)CSS(=O)(=O)O
inactive: [3] 97 % of control | [6] 97 % of control | [9] 100 % of control

CC(=O)NC(C=O)CC(C=O)CO (stereo not drawn)
inactive: endpoint: mean survival time, dose: 50.0 mg/kg/injection, schedule: Q01DX009 (ip), vehicle: saline 103 % of control | endpoint: mean survival time, dose: 50.0 mg/kg/injection, schedule: Q04DX003 (ip), vehicle: saline 107 % of control | endpoint: mean survival time, dose: 100.0 mg/kg/injection, schedule: Q01DX009 (ip), vehicle: saline 107 % of control | [12] 109 % of control | endpoint: mean survival time, dose: 150.0 mg/kg/injection, schedule: Q04DX003 (ip), vehicle: saline 108 % of control | endpoint: mean survival time, dose: 200.0 mg/kg/injection, schedule: Q01DX009 (ip), vehicle: saline 95 % of control

O=[N+]([O-])c1cc(Cl)ccc1Nc1ccccc1
inactive: [13] 102 % of control | [14] 102 % of control | endpoint: mean survival time, dose: 400.0 mg/kg/injection, schedule: Q04DX003 (ip), vehicle: Klucel (hydroxypropylcellulose) (HPC) 98 % of control

CCOC(=O)c1ccc(NC(=O)N(C)C2CCCCC2)cc1
inactive: [10] 95 % of control and 102 % of control | [1] 100 % of control and 104 % of control | [2] 91 % of control and 92 % of control | [3] 92 % of control | [4] 100 % of control and 104 % of control | [5] 92 % of control and 109 % of control | [6] 96 % of control | [8] 102 % of control | [9] 91 % of control

CC(=O)NC(C)C(C)(C)O (stereo not drawn)
inactive: [12] 91 % of control | endpoint: mean survival time, dose: 200.0 mg/kg/injection, schedule: Q04DX003 (ip), vehicle: saline 101 % of control | endpoint: mean survival time, dose: 400.0 mg/kg/injection, schedule: Q04DX003 (ip), vehicle: saline 95 % of control

O=C(O)c1cc2ccccc2oc1=O
inactive: endpoint: mean survival time, dose: 2.5 mg/kg/injection, schedule: Q01DX009 (ip), vehicle: Klucel (hydroxypropylcellulose) (HPC) 103 % of control | endpoint: mean survival time, dose: 5.0 mg/kg/injection, schedule: Q01DX009 (ip), vehicle: Klucel (hydroxypropylcellulose) (HPC) 108 % of control | endpoint: mean survival time, dose: 10.0 mg/kg/injection, schedule: Q01DX009 (ip), vehicle: Klucel (hydroxypropylcellulose) (HPC) 108 % of control | [11] 104 % of control | endpoint: mean survival time, dose: 50.0 mg/kg/injection, schedule: Q04DX003 (ip), vehicle: saline with Tween-80 112 % of control

O=C/C=C/c1ccc([N+](=O)[O-])cc1
inactive: [13] 90 % of control | [14] 90 % of control
